Our source for the IC50 and Clhep values is patent US20260085067A1, “CYCLIC SULFONAMIDE RIBONUCLEOTIDE REDUCTASE (RNR) INHIBITORS AND USES THEREOF” (Boundless Bio, Inc., priority 2022, published 2026).

Series [1] relates to pCHK1 (S345) in Colo320 DM cells. Put plainly: Alphalisa assay, detection of pCHK1 (S345) in Colo320 DM cells. In kind it is cell-based, human. The note with it: Homo sapiens, COLO 320DM, compound overnight (approximately 16 hours). In short, it runs like this: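 Colo320 DM cells plated overnight, then exposed to compound for about 16 h at 37 °C (DMSO <0.5%). Cells lysed and phospho-CHK1 (S345) quantified by AlphaLisa SureFire with sequential 60 min acceptor and donor incubations at room temperature.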

The test system of a further series is human hepatocytes. Put plainly: Human hepatocyte stability assay. In kind it is in vitro ADME. The note with it: 0.5×10^6 viable cells/ml, time points 0.5 and 60 minutes. The procedure:
1. 10 mM stock solutions of test compounds and positive control were prepared in DMSO. Thawing medium and supplement incubation medium (serum-free) were placed in a 37° C. water bath for at least 15 minutes prior to use.
2. Stock solutions were diluted to 100 μM by combining 198 μL acetonitrile and 2 μL of 10 mM stock solution. Verapamil was use as positive control in the assay.
3. Vials of cryopreserved human hepatocytes were removed from storage, while ensuring that vials remain at cryogenic temperatures. The pressure was removed by loosening and re-tightening the cap. The vials were thawed in a 37° C. water bath with gentle shaking. Vials remained in the water bath until all ice crystals had dissolved and were no longer visible. Vials were sprayed with 70% ethanol before being transferred to a biosafety cabinet. Then the contents were poured into a 50 mL thawing medium conical tube. Vials were centrifuged at 100 g for 10 minutes at room temperature. Thawing medium was aspirated and hepatocytes were re-suspended with serum-free incubation medium to yield ˜1.5×10^6 cells/mL.
4. Cell viability and density were counted using Cellometer® Vision, and then cells were diluted with serum-free incubation medium to a working cell density of 0.5×10^6 viable cells/ml.
5. Aliquots of 198 μL hepatocytes were dispensed into each well of a 96-well non-coated plate. The plate was placed in the incubator on an orbital shaker at 500 rpm for approximately 10 minutes.
6. Aliquots of 2 μL of the 100 μM test compounds or verapamil were added into respective wells of the non-coated 96-well plate to start the reaction. This assay was performed in duplicate. The plate was incubated in the incubator on an orbital shaker at 500 rpm for the designed time points.
7.25 μL of contents were transferred and mixed with 5 volumes (125 μL) of cold acetonitrile with IS (100 nM alprazolam, 200 nM caffeine, 100 nM labetalol and 100 nM tolbutamide) to terminate the reaction at time points of 0.5 and 60 minutes. Samples were centrifuged for 30 minutes at 3,220 g. Then transfer 100 μL of the supernatant to new 96-well plates for analysis. Add 100 μL of distilled water to each sample and mix for analysis by LC-MS/MS.
All calculations were carried out using Microsoft Excel. Peak areas were determined from extracted ion chromatograms. The in vitro half-life (tin) of the parent compound was determined by regression analysis of the percent parent disappearance vs. time curve. • a. The in vitro half-life (in vitro tin) was determined from the slope value: in vitro t1/2=0.693/k • b. Conversion of the in vitro tin (in min) into the in vitro intrinsic clearance (in vitro CLint, in μL/min/10^6 cells) was done using the following equation: […]

In the next series the target is T1, RNR (RNR1:RNR2 1:1) (Homo sapiens, UniProt P23921).
T1 sequence (P23921 1-792): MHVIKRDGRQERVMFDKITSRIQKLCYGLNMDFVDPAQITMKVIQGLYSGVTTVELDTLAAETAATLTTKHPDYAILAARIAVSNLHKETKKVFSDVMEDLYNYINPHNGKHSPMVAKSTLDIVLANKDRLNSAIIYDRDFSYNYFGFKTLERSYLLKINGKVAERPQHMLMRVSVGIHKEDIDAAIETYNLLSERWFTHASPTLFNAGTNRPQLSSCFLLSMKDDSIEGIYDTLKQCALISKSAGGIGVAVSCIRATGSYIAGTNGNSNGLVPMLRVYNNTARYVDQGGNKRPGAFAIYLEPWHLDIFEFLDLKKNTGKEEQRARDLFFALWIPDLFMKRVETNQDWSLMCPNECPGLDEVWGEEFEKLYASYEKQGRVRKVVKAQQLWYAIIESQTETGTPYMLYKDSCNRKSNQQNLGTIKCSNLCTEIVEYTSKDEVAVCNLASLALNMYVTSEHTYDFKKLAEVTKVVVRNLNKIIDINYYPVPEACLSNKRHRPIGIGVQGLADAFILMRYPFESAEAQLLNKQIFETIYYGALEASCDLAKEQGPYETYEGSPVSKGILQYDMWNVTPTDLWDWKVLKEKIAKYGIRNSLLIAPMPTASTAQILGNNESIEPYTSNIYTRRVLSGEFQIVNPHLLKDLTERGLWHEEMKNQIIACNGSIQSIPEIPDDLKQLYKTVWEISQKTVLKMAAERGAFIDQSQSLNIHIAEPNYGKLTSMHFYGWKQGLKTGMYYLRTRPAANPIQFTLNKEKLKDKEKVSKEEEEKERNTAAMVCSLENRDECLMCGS
Put plainly: RNR enzyme activity, rapid-fire mass spectrometry (RF/MS) assay. The series is classed as biochemical. The note with it: [RNR] 50 nM, 1:1 RNR1:RNR2; CDP 5 μM; ATP 1 mM; 37° C., 45 min; compounds screened up to 50 μM. In short, it runs like this: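 Human RNR (50 nM final, RNR1:RNR2 1:1) pre-incubated 15 min at room temperature, then reacted 45 min at 37 °C with 5 μM CDP and 1 mM ATP, no NADPH. Reaction quenched with 6% HCOOH; product quantified by rapid-fire mass spectrometry.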

Take `Cc1ccc(F)c([C@@H](C)[C@@H](c2n[nH]c(=O)o2)N2CN(C3CCOC(C)(C)C3)c3cc(Cl)ccc3S2(=O)=O)c1C` (single isomer, unassigned) [Example 89]: in series [1], the IC50 is ≤ 1 µM. In addition, the Clhep entry with human hepatocytes is reported as “B (10 ml/min/kg < Clhep ≤ 20 ml/min/kg)”.

For `Cc1ccc(F)c([C@@H](C)[C@@H](c2n[nH]c(=O)o2)N2CN([C@H]3CCOC(C)(C)C3)c3cc(Cl)ccc3S2(=O)=O)c1C` (single isomer, unassigned) [Example 90], the IC50 in series [1] is ≤ 1 µM. Moreover, the Clhep result in the series with human hepatocytes is recorded as “B (10 ml/min/kg < Clhep ≤ 20 ml/min/kg)”.

In the case of `Cc1ccc(F)c([C@@H](C)[C@@H](c2n[nH]c(=O)o2)N2CN(C)c3cc(Cl)ccc3S2(=O)=O)c1C` [Example 1, 5-((1S,2R)-1-(6-chloro-4-methyl-1,1-dioxido-3,4-dihydro-2H-benzo[e][1,2,4]thiadiazin-2-yl)-2-(6-fluoro-2,3-dimethylphenyl)propyl)-1,3,4-oxadiazol-2(3H)-one], the results for the 50% inhibitory concentration (IC50) (against RNR (RNR1:RNR2 1:1); in series [1]) were < 0.02 µM and ≤ 1 µM, respectively. Besides, the Clhep result in the series with human hepatocytes was “A (0 ml/min/kg ≤ Clhep ≤ 10 ml/min/kg)”.

`Cc1ccc(F)c([C@@H](C)[C@@H](c2n[nH]c(=O)o2)N2CCOc3cc(Cl)ccc3S2(=O)=O)c1C` [Example 2, 5-((1S,2R)-1-(7-chloro-1,1-dioxido-3,4-dihydro-2H-benzo[b][1,4,5]oxathiazepin-2-yl)-2-(6-fluoro-2,3-dimethylphenyl)propyl)-1,3,4-oxadiazol-2(3H)-one]: the IC50 against RNR (RNR1:RNR2 1:1) was < 0.02 µM; in series [1] it was 1 to 5 µM. Also, the Clhep entry with human hepatocytes is “A (0 ml/min/kg ≤ Clhep ≤ 10 ml/min/kg)”.

With `Cc1ccc(F)c([C@@H](C)[C@@H](c2n[nH]c(=O)o2)N2CN(C)c3nc(Cl)ccc3S2(=O)=O)c1C` [Example 3, 5-((1S,2R)-1-(6-chloro-4-methyl-1,1-dioxido-3,4-dihydro-2H-pyrido[2,3-e][1,2,4]thiadiazin-2-yl)-2-(6-fluoro-2,3-dimethylphenyl)propyl)-1,3,4-oxadiazol-2 (3H)-one], the IC50 is < 0.02 µM at RNR (RNR1:RNR2 1:1) and ≤ 1 µM in series [1]. Also, the Clhep entry with human hepatocytes is on record as “B (10 ml/min/kg < Clhep ≤ 20 ml/min/kg)”.

Consider `Cc1ccc(F)c([C@@H](C)[C@@H](c2n[nH]c(=O)o2)N2CNc3cc(Cl)ccc3S2(=O)=O)c1C` [Example 8, 5-((1S,2R)-1-(6-chloro-1,1-dioxido-3,4-dihydro-2H-benzo[e][1,2,4]thiadiazin-2-yl)-2-(6-fluoro-2,3-dimethylphenyl)propyl)-1,3,4-oxadiazol-2 (3H)-one], for which the IC50 is 0.02 to 0.1 µM on RNR (RNR1:RNR2 1:1) and ≤ 1 µM in series [1]. Further, the Clhep result with human hepatocytes is given as “B (10 ml/min/kg < Clhep ≤ 20 ml/min/kg)”.

For `Cc1ccc(F)c([C@@H](C)[C@@H](c2n[nH]c(=O)o2)N2CN(CCN3CCCC3)c3nc(Cl)ccc3S2(=O)=O)c1C` [Example 92, 5-((1S,2R)-1-(6-chloro-1,1-dioxido-4-(2-(pyrrolidin-1-yl)ethyl)-3,4-dihydro-2H-pyrido[2,3-e][1,2,4]thiadiazin-2-yl)-2-(6-fluoro-2,3-dimethylphenyl)propyl)-1,3,4-oxadiazol-2 (3H)-one], the IC50 in series [1] was in the range of 1 to 5 µM. Also, the Clhep entry in the series on human hepatocytes is “A (0 ml/min/kg ≤ Clhep ≤ 10 ml/min/kg)”.

`Cc1ccc(F)c([C@@H](C)[C@@H](c2n[nH]c(=O)o2)N2CN(CCN3CCOCC3)c3nc(Cl)ccc3S2(=O)=O)c1C` [Example 93, 5-((1S,2R)-1-(6-chloro-4-(2-morpholinoethyl)-1,1-dioxido-3,4-dihydro-2H-pyrido[2,3-e][1,2,4]thiadiazin-2-yl)-2-(6-fluoro-2,3-dimethylphenyl)propyl)-1,3,4-oxadiazol-2 (3H)-one]: the concentration for half-maximal inhibition (IC50) in series [1] is ≤ 1 µM. In the series with human hepatocytes, the Clhep entry is given as “A (0 ml/min/kg ≤ Clhep ≤ 10 ml/min/kg)”.

In the case of `CON1CN([C@H](c2n[nH]c(=O)o2)[C@H](C)c2c(F)ccc(C)c2C)S(=O)(=O)c2ccc(Cl)cc21` [Example 116, 5-((1S,2R)-1-(6-chloro-4-methoxy-1,1-dioxido-3,4-dihydro-2H-benzo[e][1,2,4]thiadiazin-2-yl)-2-(6-fluoro-2,3-dimethylphenyl)propyl)-1,3,4-oxadiazol-2 (3H)-one], the IC50 in series [1] is ≤ 1 µM. Further, in the series with human hepatocytes, the Clhep result is reported as “B (10 ml/min/kg < Clhep ≤ 20 ml/min/kg)”.

The compound `Cc1ccc(F)c([C@@H](C)[C@@H](c2n[nH]c(=O)o2)N2CN([C@H](C)CO)c3cc(Cl)ccc3S2(=O)=O)c1C` [Example 117, 5-((1S,2R)-1-(6-chloro-4-((R)-1-hydroxypropan-2-yl)-1,1-dioxido-3,4-dihydro-2H-benzo[e][1,2,4]thiadiazin-2-yl)-2-(6-fluoro-2,3-dimethylphenyl)propyl)-1,3,4-oxadiazol-2 (3H)-one] registered an IC50 in series [1] of 1 to 5 µM. The Clhep entry in the series on human hepatocytes is “B (10 ml/min/kg < Clhep ≤ 20 ml/min/kg)”.

Take `Cc1ccc(F)c([C@@H](C)[C@@H](c2n[nH]c(=O)o2)N2CN(C3CC(=O)C3)c3cc(Cl)ccc3S2(=O)=O)c1C` [Example 118, 5-((1S,2R)-1-(6-chloro-1,1-dioxido-4-(3-oxocyclobutyl)-3,4-dihydro-2H-benzo[e][1,2,4]thiadiazin-2-yl)-2-(6-fluoro-2,3-dimethylphenyl)propyl)-1,3,4-oxadiazol-2 (3H)-one]: the IC50 in series [1] was ≤ 1 µM. Besides, the Clhep entry in the series with human hepatocytes is given as “B (10 ml/min/kg < Clhep ≤ 20 ml/min/kg)”.

With `Cc1ccc(F)c([C@@H](C)[C@@H](c2n[nH]c(=O)o2)N2CN(O)c3cc(Cl)ccc3S2(=O)=O)c1C` [Example 120, 5-((1S,2R)-1-(6-chloro-4-hydroxy-1,1-dioxido-3,4-dihydro-2H-benzo[e][1,2,4]thiadiazin-2-yl)-2-(6-fluoro-2,3-dimethylphenyl)propyl)-1,3,4-oxadiazol-2 (3H)-one], in series [1], the IC50 fell in the range of 1 to 5 µM. The Clhep result in the series with human hepatocytes is on record as “B (10 ml/min/kg < Clhep ≤ 20 ml/min/kg)”.

As for `Cc1ccc(F)c([C@@H](C)[C@@H](c2n[nH]c(=O)o2)N2CN([C@@H](C)CO)c3cc(Cl)ccc3S2(=O)=O)c1C` [Example 121, 5-((1S,2R)-1-(6-chloro-4-((S)-1-hydroxypropan-2-yl)-1,1-dioxido-3,4-dihydro-2H-benzo[e][1,2,4]thiadiazin-2-yl)-2-(6-fluoro-2,3-dimethylphenyl)propyl)-1,3,4-oxadiazol-2 (3H)-one], the IC50 in series [1] was ≤ 1 µM. Also, the Clhep result with human hepatocytes is listed as “B (10 ml/min/kg < Clhep ≤ 20 ml/min/kg)”.

By IC50 is commonly meant the concentration at which inhibition is half-maximal.
